How the values were obtained:
[1] = Cmax in mouse at 3 mg/kg, iv; type: ADME, organism-based; parameters: dose 3 mg/kg, route iv; details: in vivo
[2] = AUC in mouse at 20 mg/kg, po; type: ADME, organism-based; parameters: dose 20 mg/kg, route po; details: in vivo
[3] = Clast in mouse at 20 mg/kg, po; type: ADME, organism-based; details: in vivo, read-out: Clast
[4] = Efflux ratio of permeability basolateral to apical over apical to basolateral side in human Caco-2 cells; type: ADME, cell-based
[5] = Inhibition of CYP2D9 (unknown origin); type: ADME, Homo sapiens
Toll-like receptor 8 = target: T1, Toll-like receptor 8 (Homo sapiens, UniProt Q9NR97); test: Antagonist activity at TLR8 in human Whole blood cell […] assessed as reduction in IL-6 level measured after 30 mins; type: tissue-based
T1 sequence (Q9NR97 whole entry): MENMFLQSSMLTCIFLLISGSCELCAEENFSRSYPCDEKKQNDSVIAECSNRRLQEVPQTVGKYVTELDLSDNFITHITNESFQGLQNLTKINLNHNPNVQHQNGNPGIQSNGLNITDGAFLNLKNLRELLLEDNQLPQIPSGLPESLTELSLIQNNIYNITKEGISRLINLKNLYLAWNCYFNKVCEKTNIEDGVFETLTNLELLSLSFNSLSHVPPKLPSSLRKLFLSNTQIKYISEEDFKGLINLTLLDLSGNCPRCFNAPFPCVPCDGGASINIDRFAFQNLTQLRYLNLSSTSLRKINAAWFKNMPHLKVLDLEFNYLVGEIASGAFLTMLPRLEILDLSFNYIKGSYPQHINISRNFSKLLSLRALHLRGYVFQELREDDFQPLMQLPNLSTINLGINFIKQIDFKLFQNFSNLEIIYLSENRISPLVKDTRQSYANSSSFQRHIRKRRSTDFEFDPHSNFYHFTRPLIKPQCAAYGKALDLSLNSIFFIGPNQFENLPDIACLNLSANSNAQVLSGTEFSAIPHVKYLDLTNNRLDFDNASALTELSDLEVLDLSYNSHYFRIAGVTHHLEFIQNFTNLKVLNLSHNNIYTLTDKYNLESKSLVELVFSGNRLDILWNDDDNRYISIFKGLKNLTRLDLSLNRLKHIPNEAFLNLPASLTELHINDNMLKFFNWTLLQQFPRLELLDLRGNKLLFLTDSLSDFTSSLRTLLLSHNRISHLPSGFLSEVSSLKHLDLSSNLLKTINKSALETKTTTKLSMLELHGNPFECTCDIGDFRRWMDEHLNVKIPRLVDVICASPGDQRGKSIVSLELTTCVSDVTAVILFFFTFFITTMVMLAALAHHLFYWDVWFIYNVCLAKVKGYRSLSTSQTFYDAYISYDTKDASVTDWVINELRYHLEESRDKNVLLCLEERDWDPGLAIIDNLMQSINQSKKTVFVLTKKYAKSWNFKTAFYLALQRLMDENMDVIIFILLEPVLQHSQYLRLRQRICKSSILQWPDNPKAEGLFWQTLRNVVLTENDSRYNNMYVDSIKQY

Toll-like receptor 9 = target: T2, Toll-like receptor 9 (Homo sapiens, UniProt Q9NR96); test: Antagonist activity at TLR9 in human Whole blood cell assessed as reduction in IFN-alpha level measured after 30 mins; type: tissue-based
T2 sequence (Q9NR96 whole entry): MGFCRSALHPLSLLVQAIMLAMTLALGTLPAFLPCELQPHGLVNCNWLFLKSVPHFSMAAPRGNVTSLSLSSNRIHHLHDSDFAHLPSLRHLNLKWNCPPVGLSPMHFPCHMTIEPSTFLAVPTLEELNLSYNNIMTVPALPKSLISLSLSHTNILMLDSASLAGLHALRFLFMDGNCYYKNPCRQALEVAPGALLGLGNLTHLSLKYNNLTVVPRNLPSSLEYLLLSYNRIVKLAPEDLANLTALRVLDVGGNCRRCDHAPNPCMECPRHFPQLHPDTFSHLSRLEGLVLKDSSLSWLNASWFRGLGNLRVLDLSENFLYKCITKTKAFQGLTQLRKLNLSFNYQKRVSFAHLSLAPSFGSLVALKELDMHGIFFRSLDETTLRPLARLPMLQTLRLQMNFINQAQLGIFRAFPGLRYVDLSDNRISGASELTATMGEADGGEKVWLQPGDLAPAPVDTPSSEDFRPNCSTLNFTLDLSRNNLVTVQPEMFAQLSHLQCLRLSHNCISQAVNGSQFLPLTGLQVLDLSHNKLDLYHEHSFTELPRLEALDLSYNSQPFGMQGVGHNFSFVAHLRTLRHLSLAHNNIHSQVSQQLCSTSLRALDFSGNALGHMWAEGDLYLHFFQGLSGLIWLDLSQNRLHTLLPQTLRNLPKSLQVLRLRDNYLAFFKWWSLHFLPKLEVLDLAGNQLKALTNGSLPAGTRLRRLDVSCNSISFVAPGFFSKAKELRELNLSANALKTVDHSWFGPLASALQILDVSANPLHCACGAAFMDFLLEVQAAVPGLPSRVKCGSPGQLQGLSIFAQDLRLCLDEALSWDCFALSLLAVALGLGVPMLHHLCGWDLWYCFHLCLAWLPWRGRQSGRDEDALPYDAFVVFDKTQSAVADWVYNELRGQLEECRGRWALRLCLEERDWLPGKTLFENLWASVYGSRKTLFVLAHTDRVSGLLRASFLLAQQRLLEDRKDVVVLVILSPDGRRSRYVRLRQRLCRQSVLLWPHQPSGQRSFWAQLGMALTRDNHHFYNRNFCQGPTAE

[6] = target: Toll-like receptor 7 (Mus musculus) (UniProt P58681); test: In vivo antagonist activity against TLR7 in mouse assessed as suppression of IFN alpha level at 1 mg/kg, po measured at 3 hrs by LC-MS/MS analysis
[7] = target: Toll-like receptor 7 (Mus musculus) (UniProt P58681); test: In vivo antagonist activity against TLR7 in mouse assessed as inhibition of IL-6 level at 10 mg/kg, po measured after 2 hrs by LC-MS/MS analysis relative to control

| Structure (SMILES) | Cmax [1] [nM] | AUC [2] [µM·h] | concentration [3] [nM] | efflux ratio [4] | IC50 [5] [µM] | IC50 (Toll-like receptor 8) [µM] | IC50 (Toll-like receptor 9) [µM] | Activity [6] [ng/mL] | inhibition in vivo at 10 mg/kg [7] [%] |
| --- | --- | --- | --- | --- | --- | --- | --- | --- | --- |
| Cc1cc(N2CCc3c(c(C)nn3CC34CCC(N)(CC3)CC4)C2)c2cnn(C)c2n1 | 321 | 1.15 | 35 | 7.5 | > 25 |  |  |  |  |
| Cc1cc(N2CCc3c(c(C)nn3CC34CCC(NC(=O)[C@@H]5COCCN5)(CC3)CC4)C2)c2cnn(C)c2n1 [MHV-370] |  |  |  |  |  | 0.074 | 1.2 | 25 | ~100 |

From ChEMBL document CHEMBL5360657, “Discovery of the TLR7/8 Antagonist MHV370 for Treatment of Systemic Autoimmune Diseases” (ACS Med Chem Lett, 2023)
